From US20170173105A1, “AUTOASSEMBLING PEPTIDES FOR THE TREATMENT OF PULMONARY LEAKAGE” (3-D MATRIX, LTD., priority 2014, published 2017)

Assays:
[1] = system: pleural defects in swine lungs; assay: Burst pressure of peptide hydrogels as air sealants on pleural defects of swine lungs; settings: for ranking of burst pressures: 16 G pleural defects, 2.5% RADA16+0.25 M CaCl2 and 1.5% IEIK13
From the text: Swine lungs were obtained from freshly euthanized pigs. An endotracheal tube was inserted through the trachea and primary bronchus into the lung of interest. Pressure was supplied to the lungs with the use of a manual endotracheal intubation pump. The trachea was tied off to prevent air leakage around the tube. The primary bronchus of the other lung was clamped to direct all airflow to the lung of interest. A manometer was used to measure the pressure of air directed into the lungs to induce expansion.
The self-assembling peptide hydrogels were comprised of Ac-RADARADARADARADA-NH2 (i.e. RADA16) (SEQ ID NO: 1), Ac-KLDLKLDLKLDL-NH2 (i.e. KLD12) (SEQ ID NO: 3), or Ac-IEIKIEIKIEIKI-NH2 (i.e. IEIK13) (SEQ ID NO: 2) with either RADA16 or KLD12 alone or mixed with 0.250 M calcium chloride. If alone, the peptides were reconstituted in deionized water. If, however the peptides were reconstituted with 0.250 M calcium chloride solution, the peptides were reconstituted first in deionized water, and subsequently, a 0.500 M solution of calcium chloride was mixed in at a 1:1 ratio.
The pleural defects were created using three different methods to measure the efficacy of the self-assembling peptide hydrogels: (1) A 16 gauge needle was used to puncture the lung and pleura, (2) A 5×5 mm area was measured and the lung and pleura were clipped using a pair of surgical scissors, and (3) A lobectomy (i.e. a complete resection of one lobe of the lung of interest). A 0.9% saline solution was streamed over the defect area and the location of the defect was identified by using the endotracheal intubation pump system to introduce air and observing the release of air bubbles.
Once the location of the defect was identified, the hydrogels were applied to the defect area via two different methods: (1) the hydrogel was applied topically by injecting through a syringe onto the defect area, and (2) the hydrogel was injected into the defect through an 18 gauge needle with overflow to cover the defect area topically. After a relaxation period of 2 min, pressure was applied through the endotracheal intubation pump until a burst pressure was identified. For any additional tests, airflow to the previously tested defect was cut off using a surgical clamp.

[2] = Rheological comparison of peptide hydrogels mixed with Ringer's Solution or indigo carmine; assay type: physicochemical
From the text: The two gels were: (1) a combination of the self-assembling peptide with a well-known cation/anion solution, Ringer's Solution (pH 5.3), used in the medical field and (2) a combination of the self-assembling peptide with a well-known contrast agent, indigo carmine, which is a dye solution containing sulfate (anion) and sodium (cation) ions. Indigo carmine contains indigoindisulfonate sodium (C16H8N2Na2O8S2), water, and sodium citrate […] for pH adjustment. Using indigo carmine powder, a 1% solution was prepared for use in experimentation. This corresponds to 10 mg/1 ml of water. The concentration of indigo carmine solution used in experimentation was 0.00585% in water.
Indigo carmine powder was used to prepare a 1% solution in deionized (DI) water. Using IEIK13 powder, a 2 percent solution was prepared using DI water. The amount of IEIK was weighed out and the appropriate amount of DI water was added gently down the side of the container. Mixing was accomplished by vortexing for about 30 seconds, and then sonicating for 30 seconds. The solution was then centrifuged for about 10 to about 15 minutes at […]. The solution may undergo further vortexing and centrifuging until the solution is clear and without bubbles.
To obtain a final concentration of 0.00585% indigo carmine, the necessary amount of 1% IC is added to the appropriate amount of DI water to dilute 2% IEIK to 1.5% IEIK. […]

Substance | effect of increasing exposure time on burst pressure ([1]; 2.5% RADA16, 16 G pleural defect, varying time points) | effect of needle gauge of pleural defect on burst pressure ([1]; 2.5% RADA16 applied topically, 14, 16, 18, and 22 gauge needles) | effect of topically added NaCl solution on burst pressure ([1]; 2.5% RADA16 topically, 16 G pleural defect, 0.154 M NaCl gently massaged in) | ranking of burst pressures [1] | properties of tailored hydrogel ([2]; mixed with Ringer's Solution (pH 5.3)) | properties of tailored hydrogel ([2]; 1.5% IEIK mixed with 0.00585% indigo carmine)
Arg-Ala-Asp-Ala-Arg-Ala-Asp-Ala-Arg-Ala-Asp-Ala-Arg-Ala-Asp-Ala [PuraMatrix ®] | increased the burst pressure | negligible changes in burst pressures | slightly increased | best burst pressures | stiffer gel with faster gelation kinetics that maintains reversibility | 
Ile-Glu-Ile-Lys-Ile-Glu-Ile-Lys-Ile-Glu-Ile-Lys-Ile [IEIK13] |  |  |  | best burst pressures |  | maintains stiffness, reversibility, and gelation kinetics
